# Source: patent publication US8569247B2 (priority 2009, dated 2013)
# Read-outs that look alike come from different tables or passages of the source.
# Columns and labels:
# [1] = Content of test solution before and after incubation (stability under CaCo-2 test conditions); assay type: in vitro ADME; conditions: for Area-% Fingerprint of test solution after 120 minutes / Area-% Fingerprint of test solution prior to incubation: Gardenia extract test solution
# Method: (§1) CaCo-2 cells were incubated with 10 mg Gardenia extract and 10 mg crocetin/100 mL medium. The test compounds were dissolved in methanol and then diluted with incubation medium. Incubations were performed at 37° C. for 30, 60 and 120 minutes.
# The content of crocetin related esters and crocetin in the sample used for incubation testing was determined.
# Table 7 provides the content of test solution prior to incubation:
# Table 8 provides the corresponding data for the test solution obtained after 120 minutes.
# (§2) An appropriate amount of standard was transferred into a 10 mL flask and dissolved in 3 mL methanol and filled to the mark with water. Dilutions were prepared in mobile phase.
# (§3) Quantification was performed by external standardization after linear regression analysis.
# CaCo-2 cells [2] = assay: Cellular uptake of crocin and crocetin in CaCo-2 cells (cellular content); assay type: in vitro ADME; conditions: for HPLC peaks in the cells: 10 mg Gardenia extract/100 mL medium; for Crocetin (HPLC) concentration in the cells: 10 mg crocetin/100 mL medium
# Method: as §1
# Cells were grown in 75 cm^2 culture-flasks (T75) and sub-cultured after one week (every other day washed with PBS buffer, removed with trypsin and transferred to a new culture flask).
# The cells were washed with PBS buffer, incubated with 4 ml medium containing the suspended samples for 30, 60 or 120 minutes.
# After the corresponding incubation time, the cells were washed with PBS buffer/MeOH=70/30 and removed using 1 ml of MeOH. Cells were sonicated 3 times for 30 seconds, centrifuged for 10 min and the pellets were discarded. The supernatant was used as sample for HPLC and UV/VIS-analysis.
# as §2, §3
# [3] = stated as known property; cited from earlier work
# CaCo-2 cells [4] = assay: CaCo-2 uptake trial extended with gardenia hydrolysate (%-uptake by HPLC/UV peak areas); assay type: in vitro ADME; conditions: sample 20 mg/100 ml; proportion on overall absorption
# Method: The tests were performed in replicate and the results are expressed as %-uptake based on peak areas measured by HPLC/UV.
# [5] = molecular target: human acetylcholinesterase (Homo sapiens, UniProt P22303); assay: biochemical; assay type: biochemical; conditions: for inhibition at 500 µg/mL: read-out: Inhibition of AChE activity %; for activity at 500 µg/mL: read-out: AChE activity %
# Sequence of human acetylcholinesterase (P22303 32-614): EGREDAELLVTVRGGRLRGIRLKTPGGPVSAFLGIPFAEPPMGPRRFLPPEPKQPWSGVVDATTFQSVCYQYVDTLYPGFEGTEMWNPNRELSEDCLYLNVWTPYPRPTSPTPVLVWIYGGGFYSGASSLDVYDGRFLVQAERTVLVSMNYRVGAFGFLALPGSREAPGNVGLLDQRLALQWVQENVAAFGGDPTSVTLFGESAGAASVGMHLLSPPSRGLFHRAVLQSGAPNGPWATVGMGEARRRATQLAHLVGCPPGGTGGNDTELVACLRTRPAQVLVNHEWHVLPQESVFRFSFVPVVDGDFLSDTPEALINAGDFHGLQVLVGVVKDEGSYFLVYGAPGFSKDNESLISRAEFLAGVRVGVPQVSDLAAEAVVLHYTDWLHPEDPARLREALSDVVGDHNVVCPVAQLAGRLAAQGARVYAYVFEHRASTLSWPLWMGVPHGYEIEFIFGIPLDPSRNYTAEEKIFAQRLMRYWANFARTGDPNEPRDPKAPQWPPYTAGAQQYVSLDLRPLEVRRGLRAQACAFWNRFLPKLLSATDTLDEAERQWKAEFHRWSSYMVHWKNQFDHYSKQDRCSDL
# Method: Inhibitor solution: 10 mg of the corresponding samples were respectively dissolved in 1 ml methanol.
# Chromogen solution: 0.1 M Sodium phosphate buffer (pH=8, NaOH) was mixed with solution A at a ratio of 30:1.
# Solution A: 39.6 mg 5,5′-dithio-bis[2-nitrobenzoic acid] and 15.0 mg NaHCO3 were weighed into a 10 ml flask and filled to the mark with 0.1 M Sodium-phosphate buffer (pH=7, NaOH).
# Enzyme solution: A solution of human acetylcholinesterase containing 70 IU enzyme activity/ml H2O was prepared.
# Substrate solution: 115.7 mg acetylthiocholine-iodide was weighed into a 10 ml flask and filled to the mark with H2O.
# 10 μl inhibitor solution was mixed with 185 μl chromogen solution and 10 μl enzyme solution. The solution was incubated for 10 minutes at room temperature with shaking. […] substrate solution was added and the increase in absorption at 412 nm was recorded until no more increase was observed (3-5 minutes).
# [6] = Solubility in water / aqueous alkaline solution; assay type: physicochemical; conditions: found by the applicant
# [7] = after 120 minutes incubation at 37° C.
# [8] = sample 0.50 mg/ml, Neg Control = 0.0
# [9] = sample 0.50 mg/ml, Neg Control = 100.0
Molecule,"Area-% Fingerprint of test solution after 120 minutes [1, 7] [Area-%]",Area-% Fingerprint of test solution prior to incubation ([1]; prior to incubation) [Area-%],HPLC peaks in the cells (CaCo-2 cells [2]; time 0 min),HPLC peaks in the cells (CaCo-2 cells [2]; time 30 min),HPLC peaks in the cells (CaCo-2 cells [2]; time 60 min),HPLC peaks in the cells (CaCo-2 cells [2]; time 120 min),further results
"CC(=C/C=C/C=C(C)/C=C/C=C(/C)C(=O)O[C@@H]1O[C@H](CO[C@@H]2O[C@H](CO)[C@@H](O)[C@H](O)[C@H]2O)[C@@H](O)[C@H](O)[C@H]1O)/C=C/C=C(\C)C(=O)O[C@@H]1O[C@H](CO[C@@H]2O[C@H](CO)[C@@H](O)[C@H](O)[C@H]2O)[C@@H](O)[C@H](O)[C@H]1O (relative stereo) [DGCC, digentobiosyl-(cis)crocetin]",15.2,16.6,not detected,not detected,not detected,not detected,
"CC(/C=C/C=C(\C)C(=O)O[C@@H]1O[C@H](CO[C@@H]2O[C@H](CO)[C@@H](O)[C@H](O)[C@H]2O)[C@@H](O)[C@H](O)[C@H]1O)=C\C=C\C=C(C)\C=C\C=C(/C)C(=O)O[C@@H]1O[C@H](CO[C@@H]2O[C@H](CO)[C@@H](O)[C@H](O)[C@H]2O)[C@@H](O)[C@H](O)[C@H]1O (relative stereo) [DGTC, digentobiosyl-(trans)crocetin]",43.4,45.3,not detected,not detected,not detected,not detected,
"CC(/C=C/C=C(\C)C(=O)O)=C\C=C\C=C(C)\C=C\C=C(/C)C(=O)O[C@@H]1O[C@H](CO[C@@H]2O[C@H](CO)[C@@H](O)[C@H](O)[C@H]2O)[C@@H](O)[C@H](O)[C@H]1O (relative stereo) [GTC, gentobisyl-(trans)crocetin]",10.3,9.7,not detected,not detected,not detected,not detected,
"CC(/C=C/C=C(\C)C(=O)O)=C\C=C\C=C(C)\C=C\C=C(/C)C(=O)O [Crocetin, 8,8′-Diapo-ψ,ψ-carotenedioic acid, reference compound]",,,,,,,"solubility in aqueous alkaline solution [3]: soluble; solubility in water [3]: insoluble in water; content of test solution after 120 minutes [1, 7]: 9.77 mg/100 ml; content of test solution prior to incubation ([1]; prior to incubation, incubation medium): 9.82 mg/100 ml; Crocetin (HPLC) concentration in the cells (CaCo-2 cells [2]; time 0 min): BLD (BLD = <0.01 mg/100 ml); Crocetin (HPLC) concentration in the cells (CaCo-2 cells [2]; time 30 min): BLD (BLD = <0.01 mg/100 ml); Crocetin (HPLC) concentration in the cells (CaCo-2 cells [2]; time 60 min): BLD (BLD = <0.01 mg/100 ml); Crocetin (HPLC) concentration in the cells (CaCo-2 cells [2]; time 120 min): BLD (BLD = <0.01 mg/100 ml); % uptake of crocetin (CaCo-2 cells [4]): 0.53%; inhibition at 500 µg/mL [5, 8]: 7.5%; activity at 500 µg/mL [5, 9]: 92.5%"
"CC(/C=C/C=C(\C)C(=O)O[C@@H]1O[C@H](CO[C@@H]2O[C@H](CO)[C@@H](O)[C@H](O)[C@H]2O)[C@@H](O)[C@H](O)[C@H]1O)=C\C=C\C=C(C)\C=C\C=C(/C)C(=O)O[C@@H]1O[C@H](CO[C@@H]2O[C@H](CO)[C@@H](O)[C@H](O)[C@H]2O)[C@@H](O)[C@H](O)[C@H]1O [Crocin, di-gentiobiose ester of crocetin]",,,,,,,solubility in water [3]: very good water-solubility; activity at 500 µg/mL [5]: 52.7%; inhibition at 500 µg/mL [5]: 47.3%
CCOC(=O)CCC(=O)O [Monoester],,,,,,,"solubility in water [6]: good solubility in water; Inhibition of AChE activity % [5, 8]: 89.2%; AChE activity % [5, 9]: 10.8%"
neapolitanosyl-glucosyl-(trans)crocetin [NGTC],17.9,18.1,not detected,not detected,not detected,not detected,
